US11242337B2, “Compounds useful for treating gastrointestinal tract disorders” (Ardelyx, Inc., priority 2017, dated 2022)
Read-outs that look alike come from different tables or passages of the source.

Key:
[1] = tested on: human duodenum monolayer culture; assay: Increased trans-epithelial resistance (TEER) in human organoid monolayer cell cultures; format: cell-based; settings: 1 μM apical, baseline corrected
Procedure: Basal media (B consisted of advanced DMEM/F12 containing 10 mM HEPES (Invitrogen, 15630-080), 1:100 Glutamax (Invitrogen, 35050-061), and 1:100 penicillin/streptomycin (Invitrogen, 15140-122). Supplemented basal media (SBM) contained 1:100 N2 (Invitrogen, 17502-048), 1:50 B27 (Invitrogen, 12587-010), 1 mM N-acetylcysteine (Sigma, A9165), and 10 nM [Leu15]-gastrin I (Sigma, G9145). Growth factors used included 50 ng per mL mouse EGF (Peprotech, 315-09), 100 ng per mL mouse noggin (Peprotech, 250-38), 500 ng per mL human R-spondin 1 (R&D, 4645-RS), 100 ng per mL mouse Wnt-3a (R&D, 1324-WN), 20 μM Y-27632 (Tocris, 1254), 10 mM nicotinamide (Sigma, N0636), 500 nM A83-01 (Tocris, 2939), 10 μM SB202190 (Tocris, 1264). Transwells were 0.4 μm pore polyester membrane 24-well Transwell inserts (Corning). Cultures were incubated at 37° C. in 5% CO2.
Human duodenum organoids were cultured in WENRNAS (Wnt, EGF, noggin, R-spondin1, Nicotinamide, A83-01, SB202190) and typically grown for 7-12 days before being used to plate monolayer cultures. On day 0, organoid cultures embedded in Matrigel were treated with TrypLE Express to break organoids into small pieces and/or single cells. The cells were resuspended to 0.5×10^6 cells/mL in SBM containing WENRAY (Wnt, EGF, noggin, R-spondin1, A83-01, Y-27632). Following this step, 200 μL of cell suspension was plated into the apical side of a 24-well Transwell (100,000 cells/well) and 600 μL of SBM with WENRAY was added to the basolateral side. Duodenum cells were differentiated with ENA (EGF, noggin, A83-01) on day 3. The color of apical compartment turns from pink or orange to yellow due to the increase in NHE3 expression after differentiation.
Each human duodenum monolayer culture well was washed twice with fresh SBM on the apical side on day 6 or day 7 before dosing. All compound stocks were 10 mM dissolved DMSO. Each compound stock was individually mixed with fresh SBM to reach final compound concentration 1 μM and dosed only on the apical side of the monolayer (total volume 200 μl). DMSO at the equivalent concentration was used as the vehicle control. Duplicate wells were dosed for each compound. Transepithelial electrical resistance (TEER) was used as a quantitative technique to measure of tight junction permeability. TEER values were recorded (MERS00002, Millipore) before dosing and 30 mins and 1 hr after dosing for all wells. Each of the duplicate TEER values following treatment were corrected for the individual well baseline TEER. Baseline corrected TEER for each example compound was compared to the average of the DMSO wells and expressed as a percent TEER of vehicle control.

NHE3 = target: T1, NHE3 (Homo sapiens, UniProt P48764); assay: Cell-based assay of NHE-3 activity (pre-incubation inhibition), human; settings: human Preincubation
T1 construct: expressed in transfected cells
T1 sequence (P48764 26-834): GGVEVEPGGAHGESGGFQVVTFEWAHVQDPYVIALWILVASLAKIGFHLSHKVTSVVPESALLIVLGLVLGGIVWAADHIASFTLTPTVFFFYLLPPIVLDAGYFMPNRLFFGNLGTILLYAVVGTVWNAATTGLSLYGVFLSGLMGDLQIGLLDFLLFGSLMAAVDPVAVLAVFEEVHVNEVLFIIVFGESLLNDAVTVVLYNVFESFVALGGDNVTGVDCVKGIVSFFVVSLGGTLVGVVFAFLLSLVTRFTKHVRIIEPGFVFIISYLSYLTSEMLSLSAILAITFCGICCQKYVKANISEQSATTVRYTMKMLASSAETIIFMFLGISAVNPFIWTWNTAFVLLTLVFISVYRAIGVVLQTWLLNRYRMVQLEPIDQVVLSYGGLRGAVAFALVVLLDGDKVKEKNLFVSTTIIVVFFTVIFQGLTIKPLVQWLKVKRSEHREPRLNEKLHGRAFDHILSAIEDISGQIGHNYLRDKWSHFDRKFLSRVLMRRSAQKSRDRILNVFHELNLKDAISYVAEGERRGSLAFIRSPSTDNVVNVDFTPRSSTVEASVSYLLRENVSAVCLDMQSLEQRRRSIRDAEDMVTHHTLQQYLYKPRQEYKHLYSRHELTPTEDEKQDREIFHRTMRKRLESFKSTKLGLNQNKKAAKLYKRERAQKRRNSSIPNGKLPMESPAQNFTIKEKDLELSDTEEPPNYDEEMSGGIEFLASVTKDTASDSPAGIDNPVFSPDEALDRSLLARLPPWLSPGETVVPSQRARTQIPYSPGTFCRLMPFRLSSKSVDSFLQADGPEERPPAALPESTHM
T1 sequence (Q99653 2-195 partner limits assumed): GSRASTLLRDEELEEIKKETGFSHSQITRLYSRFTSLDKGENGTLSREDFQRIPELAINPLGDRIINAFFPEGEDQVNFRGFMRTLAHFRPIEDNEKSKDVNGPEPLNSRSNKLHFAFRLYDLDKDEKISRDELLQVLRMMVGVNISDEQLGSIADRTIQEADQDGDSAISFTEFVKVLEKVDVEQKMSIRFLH
How it was run: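 PS120 fibroblasts stably expressing human NHE3 and NHERF2, loaded 30 min at 37 °C with 5 μM BCECF-AM in NH4Cl buffer, then acidified 10 min at room temperature in Na+-free buffer with 0–30 μM compound. Initial rate of BCECF fluorescence ratio change (FLIPR) per minute taken as Na+/H+ activity.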

[2] = 1 hr after dosing, read-out: TEER at 60 minutes (% of Vehicle)
[3] = 0.5 h, 30 mins after dosing, read-out: TEER at 30 minutes (% of Vehicle)

Row | Structure (SMILES) | activity at 1 µM [1, 2] [%] | activity at 1 µM [1, 3] [%] | % inhibition (NHE3) | pIC50 (NHE3; 0-30 μM test compound) | IC50 (NHE3; 0-30 μM test compound) [nM]
1 | N#Cc1cc(Cl)cc2c1C[C@H](N1CCNCC1)[C@H]2Oc1ccc(S(=O)(=O)N[C@H]2CCN(CCOCCNC(=O)NCCCCNC(=O)NCCOCCN3CC[C@H](NS(=O)(=O)c4ccc(O[C@H]5c6cc(Cl)cc(C#N)c6C[C@@H]5N5CCNCC5)cc4)C3)C2)cc1 [Example 107, 4-([(1S,2S)-6-Chloro-4-cyano-2-(piperazin-1-yl)-2,3-dihydro-1H-inden-1-yl]oxy)-N—[(S)-1-(20-[(S)-3-([4-([(1S,2S)-6-chloro-4-cyano-2-(piperazin-1-yl)-2,3-dihydro-1H-inden-1-yl]oxy)phenyl]sulfonamido)pyrrolidin-1-yl]-7,14-dioxo-3,18-dioxa-6,8,13,15-tetraazaicosyl)pyrrolidin-3-yl]benzenesulfonamide; tetra(trifluoroacetate)] | 100 to 130 | > 130 | C (>70%) | C (NHE3 pIC50 > 7) | –
2 | N#Cc1cc(Cl)cc2c1C[C@H](N1CCNCC1)[C@H]2Oc1ccc(S(=O)(=O)N[C@H]2CCN(CCOCCNC(=O)NCCCCNC(=O)NCCOCCN3CC[C@H](NS(=O)(=O)c4ccc(O[C@H]5c6cc(Cl)cc(C#N)c6C[C@@H]5N5CCNCC5)c(F)c4)C3)C2)cc1F [Example 110, 4-([(1S,2S)-6-Chloro-4-cyano-2-(piperazin-1-yl)-2,3-dihydro-1H-inden-1-yl]oxy)-N—[(S)-1-(20-[(S)-3-[(4-([(1S,2S)-6-chloro-4-cyano-2-(piperazin-1-yl)-2,3-dihydro-1H-inden-1-yl]oxy)-3-fluorophenyl)sulfonamide)pyrrolidin-1-yl]-7,14-dioxo-3,18-dioxa-6,8,13,15-tetraazaicosyl)pyrrolidin-3-yl]-3-fluorobenzenesulfonamide; tetra(trifluoroacetate)] | 100 to 130 | > 130 | C (>70%) | C (NHE3 pIC50 > 7) | –
3 | N#Cc1cc(Cl)cc2c1C[C@H](N1CCNCC1)[C@H]2Oc1ccc(S(=O)(=O)NC2CCN(C(=O)CCCNC(=O)NCCCCNC(=O)NCCCC(=O)N3CCC(NS(=O)(=O)c4ccc(O[C@H]5c6cc(Cl)cc(C#N)c6C[C@@H]5N5CCNCC5)cc4)CC3)CC2)cc1 [Example 115] | 100 to 130 | 100 to 130 | C (>70%) | C (NHE3 pIC50 > 7) | –
4 | N#Cc1cc(Cl)cc2c1C[C@H](N1CCCNCC1)[C@H]2Oc1ccc(S(=O)(=O)N[C@H]2CCN(CCOCCNC(=O)NCCCCNC(=O)NCCOCCN3CC[C@H](NS(=O)(=O)c4ccc(O[C@H]5c6cc(Cl)cc(C#N)c6C[C@@H]5N5CCCNCC5)cc4)C3)C2)cc1 [Example 126, 4-([(1S,2S)-6-Chloro-4-cyano-2-(1,4-diazepan-1-yl)-2,3-dihydro-1H-inden-1-yl]oxy)-N—[(S)-1-(20-[(S)-3-([4-([(1S,2S)-6-chloro-4-cyano-2-(1,4-diazepan-1-yl)-2,3-dihydro-1H-inden-1-yl]oxy)phenyl]sulfonamido)pyrrolidin-1-yl]-7,14-dioxo-3,18-dioxa-6,8,13,15-tetraazaicosyl)pyrrolidin-3-yl]benzenesulfonamide] | 100 to 130 | 100 to 130 | C (>70%) | – | < 100
